Measured values as given in patent US11427553B2, “Dihydrooxadiazinones” (Bayer Aktiengesellschaft, priority 2017, dated 2022).

Experiments:
human full length PDE3B = human full length PDE3B (Homo sapiens (Human), UniProt Q13370); test: Assay 5 PDE3B enzyme inhibition (3H-cAMP SPA); format: biochemical; conditions: Sf9 cell extract
Summary of the method: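 Inhibition was measured by scintillation proximity using [8-3H]adenosine 3′,5′-cyclic phosphate as substrate and full-length human PDE3B from an Sf9 overexpression extract, run one hour at room temperature at pH 7.5.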

human full length PDE3A = human full length PDE3A (Homo sapiens (Human), UniProt Q14432); test: Assay 4 PDE3A enzyme inhibition (3H-cAMP SPA); format: biochemical; conditions: Sf9 cell extract
Chain of human full length PDE3A (Q14432 whole entry): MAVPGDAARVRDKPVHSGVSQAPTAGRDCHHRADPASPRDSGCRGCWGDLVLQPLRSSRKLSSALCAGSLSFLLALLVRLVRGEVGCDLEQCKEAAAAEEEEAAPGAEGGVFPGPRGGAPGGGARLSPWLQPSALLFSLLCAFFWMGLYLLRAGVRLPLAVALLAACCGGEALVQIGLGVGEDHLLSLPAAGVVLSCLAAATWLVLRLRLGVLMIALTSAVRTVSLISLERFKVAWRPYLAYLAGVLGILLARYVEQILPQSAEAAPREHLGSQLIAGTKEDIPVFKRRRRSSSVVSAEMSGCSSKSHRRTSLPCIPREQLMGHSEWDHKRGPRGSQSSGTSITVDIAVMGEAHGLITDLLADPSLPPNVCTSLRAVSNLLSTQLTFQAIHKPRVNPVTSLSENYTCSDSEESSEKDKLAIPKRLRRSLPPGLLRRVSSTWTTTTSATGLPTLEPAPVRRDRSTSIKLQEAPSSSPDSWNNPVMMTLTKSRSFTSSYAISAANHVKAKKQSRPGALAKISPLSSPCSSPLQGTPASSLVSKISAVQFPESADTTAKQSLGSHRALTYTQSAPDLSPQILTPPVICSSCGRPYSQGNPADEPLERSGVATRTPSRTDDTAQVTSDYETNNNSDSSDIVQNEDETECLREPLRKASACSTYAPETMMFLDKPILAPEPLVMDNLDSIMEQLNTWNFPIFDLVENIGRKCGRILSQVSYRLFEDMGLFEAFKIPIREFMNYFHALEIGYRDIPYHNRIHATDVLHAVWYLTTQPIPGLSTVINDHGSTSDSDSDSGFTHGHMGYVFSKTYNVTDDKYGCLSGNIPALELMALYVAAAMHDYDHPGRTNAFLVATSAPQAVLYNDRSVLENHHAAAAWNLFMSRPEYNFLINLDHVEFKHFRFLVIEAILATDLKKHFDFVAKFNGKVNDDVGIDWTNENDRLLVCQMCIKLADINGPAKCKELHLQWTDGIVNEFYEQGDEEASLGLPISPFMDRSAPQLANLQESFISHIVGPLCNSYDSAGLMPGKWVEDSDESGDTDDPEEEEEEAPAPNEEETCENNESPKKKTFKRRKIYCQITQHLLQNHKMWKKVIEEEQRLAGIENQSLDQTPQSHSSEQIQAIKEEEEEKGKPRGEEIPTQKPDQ
Summary of the method: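 In this SPA format, the 60-min room-temperature reaction used 0.025 μCi [8-3H]cAMP and diluted full-length PDE3A from Sf9 cells. Percentage activity was plotted against log compound concentration to derive IC50.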

SK-MEL-3 cells = test: Assay 1 cell proliferation measurement (CTG, 72 h), SK-MEL-3; format: cell-based, human; conditions: Homo sapiens, SK-MEL3; Assay 1, 72 h, Cell Titer Glo; read-out: SK-MEL-3 IC50 [nM] (melanoma)
Summary of the method: (§1)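 Growth inhibition relative to a 0 h baseline plate and 0.3% DMSO control, with IC50 fitted by 4-parameter curve. Compound exposure lasted 72 h at 37 °C across a 2.5-fold, 10-step series starting generally at 100 nM final.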

HeLa cells = test: Assay 1 cell proliferation measurement (CTG, 72 h), HeLa; format: cell-based, human; conditions: Homo sapiens, HeLa; Assay 1, 72 h, Cell Titer Glo; read-out: HeLa IC50 [nM] (Cervical cancer)
Summary of the method: as §1

Chain of human full length PDE3B (Q13370 whole entry): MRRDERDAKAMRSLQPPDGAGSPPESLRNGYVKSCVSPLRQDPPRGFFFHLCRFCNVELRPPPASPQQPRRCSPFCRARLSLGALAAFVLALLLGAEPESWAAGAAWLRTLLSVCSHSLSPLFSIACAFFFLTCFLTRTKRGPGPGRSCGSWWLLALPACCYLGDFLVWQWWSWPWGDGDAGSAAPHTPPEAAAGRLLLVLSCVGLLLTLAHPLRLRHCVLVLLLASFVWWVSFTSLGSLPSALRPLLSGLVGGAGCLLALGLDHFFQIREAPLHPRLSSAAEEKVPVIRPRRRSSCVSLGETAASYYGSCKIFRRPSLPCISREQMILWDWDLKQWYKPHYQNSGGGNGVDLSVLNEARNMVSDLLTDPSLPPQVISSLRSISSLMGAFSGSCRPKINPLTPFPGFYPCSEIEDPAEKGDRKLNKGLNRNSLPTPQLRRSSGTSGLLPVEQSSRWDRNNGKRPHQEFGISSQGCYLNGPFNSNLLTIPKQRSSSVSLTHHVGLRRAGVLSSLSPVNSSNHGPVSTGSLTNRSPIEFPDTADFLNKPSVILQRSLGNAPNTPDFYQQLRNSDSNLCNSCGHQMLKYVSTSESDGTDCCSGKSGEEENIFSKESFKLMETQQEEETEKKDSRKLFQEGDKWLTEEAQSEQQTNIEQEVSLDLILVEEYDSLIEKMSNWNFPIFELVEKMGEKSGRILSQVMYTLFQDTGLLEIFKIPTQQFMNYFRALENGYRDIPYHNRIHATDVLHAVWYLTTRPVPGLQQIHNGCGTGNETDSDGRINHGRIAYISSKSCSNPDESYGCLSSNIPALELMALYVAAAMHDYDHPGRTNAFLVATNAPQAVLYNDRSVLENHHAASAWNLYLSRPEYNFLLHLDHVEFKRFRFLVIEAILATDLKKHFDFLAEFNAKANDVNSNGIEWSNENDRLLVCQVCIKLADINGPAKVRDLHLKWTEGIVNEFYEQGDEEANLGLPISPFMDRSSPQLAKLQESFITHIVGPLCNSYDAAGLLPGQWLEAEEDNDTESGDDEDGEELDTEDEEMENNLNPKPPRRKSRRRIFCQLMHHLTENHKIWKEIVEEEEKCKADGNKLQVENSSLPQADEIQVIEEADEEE

Structure (SMILES)	IC50 (human full length PDE3B) [nM]	IC50 (human full length PDE3A) [nM]	IC50 (SK-MEL-3 cells) [nM]	IC50 (HeLa cells) [nM]
O=C1NN=C(c2ccc(-c3cnsc3)c(C(F)(F)F)c2)CO1 [Example 49, 5-[4-(1,2-Thiazol-4-yl)-3-(trifluoromethyl)phenyl]-3,6-dihydro-2H-1,3,4-oxadiazin-2-one]	190	230	13	6
Cn1c(C#N)ccc1-c1ccc(C2=NNC(=O)OC2)cc1C(F)(F)F [Example 50, 1-Methyl-5-[4-(2-oxo-3,6-dihydro-2H-1,3,4-oxadiazin-5-yl)-2-(trifluoromethyl)phenyl]-1H-pyrrole-2-carbonitrile]	210	260	19800	81
O=C1NN=C(c2ccc(-c3ccc(C(F)(F)F)cc3)c(C(F)(F)F)c2)CO1 [Example 51, 5-[2,4′-Bis(trifluoromethyl)biphenyl-4-yl]-3,6-dihydro-2H-1,3,4-oxadiazin-2-one]	> 1000	> 1000	49	30
Cc1nn(C)cc1-c1ccc(C2=NNC(=O)OC2)cc1C(F)(F)F [Example 52, 5-[4-(1,3-Dimethyl-1H-pyrazol-4-yl)-3-(trifluoromethyl)phenyl]-3,6-dihydro-2H-1,3,4-oxadiazin-2-one]	30	65	> 100	48
COc1nc(C)ccc1-c1ccc(C2=NNC(=O)OC2)cc1C(F)(F)F [Example 53, 5-[4-(2-Methoxy-6-methylpyridin-3-yl)-3-(trifluoromethyl)phenyl]-3,6-dihydro-2H-1,3,4-oxadiazin-2-one]	390	580	13000	36
Cc1ncc(-c2ccc(C3=NNC(=O)OC3)cc2C(F)(F)F)s1 [Example 54, 5-[4-(2-Methyl-1,3-thiazol-5-yl)-3-(trifluoromethyl)phenyl]-3,6-dihydro-2H-1,3,4-oxadiazin-2-one]	89	100	3	1
CNc1ccc(-c2ccc(C3=NNC(=O)OC3)cc2C(F)(F)F)cc1 [Example 55, 5-[4′-(Methylamino)-2-(trifluoromethyl)biphenyl-4-yl]-3,6-dihydro-2H-1,3,4-oxadiazin-2-one]	250	280	14	7
Nc1cc(-c2ccc(C3=NNC(=O)OC3)cc2C(F)(F)F)ccc1F [Example 56, 5-[3′-Amino-4′-fluoro-2-(trifluoromethyl)biphenyl-4-yl]-3,6-dihydro-2H-1,3,4-oxadiazin-2-one]	80	180	10	5
O=C1NN=C(c2ccc(-c3cc(F)c(F)c(F)c3)c(C(F)(F)F)c2)CO1 [Example 58, 5-[3′,4′,5′-Trifluoro-2-(trifluoromethyl)biphenyl-4-yl]-3,6-dihydro-2H-1,3,4-oxadiazin-2-one]	570	310	64	40
O=C1NN=C(c2ccc(-c3cc(F)ccc3F)c(C(F)(F)F)c2)CO1 [Example 59, 5-[2′,5′-Difluoro-2-(trifluoromethyl)biphenyl-4-yl]-3,6-dihydro-2H-1,3,4-oxadiazin-2-one]	250	150	38	18
Nc1cc(-c2ccc(C3=NNC(=O)OC3)cc2OC(F)(F)F)ccc1F [Example 60, 5-[3′-Amino-4′-fluoro-2-(trifluoromethoxy)biphenyl-4-yl]-3,6-dihydro-2H-1,3,4-oxadiazin-2-one]	510	270	20	13
O=C1NN=C(c2ccc(-c3ccc(F)c(F)c3)c(C(F)(F)F)c2)CO1 [Example 61, 5-[3′,4′-Difluoro-2-(trifluoromethyl)biphenyl-4-yl]-3,6-dihydro-2H-1,3,4-oxadiazin-2-one]	320	230	16	10
O=C1NN=C(c2ccc(-c3ccc4cc[nH]c4c3)c(C(F)(F)F)c2)CO1 [Example 62, 5-[4-(1H-Indol-6-yl)-3-(trifluoromethyl)phenyl]-3,6-dihydro-2H-1,3,4-oxadiazin-2-one]	180	85	14	6
CC(C)=Cc1ccc(C2=NNC(=O)OC2)cc1C(F)(F)F [Example 63, 5-[4-(2-Methylprop-1-en-1-yl)-3-(trifluoromethyl)phenyl]-3,6-dihydro-2H-1,3,4-oxadiazin-2-one]	33	31	3	1
O=C1NN=C(c2ccc(-c3cccc(F)c3F)c(C(F)(F)F)c2)CO1 [Example 64, 5-[2′,3′-Difluoro-2-(trifluoromethyl)biphenyl-4-yl]-3,6-dihydro-2H-1,3,4-oxadiazin-2-one]	193	221	41	17
O=C1NN=C(c2ccc(N3CCOCC3)c(C(F)(F)F)c2)CO1 [Example 65, 5-[4-(Morpholin-4-yl)-3-(trifluoromethyl)phenyl]-3,6-dihydro-2H-1,3,4-oxadiazin-2-one]	30	25	3	2
CCCCNc1ccc(C2=NNC(=O)OC2)cc1C(F)(F)F [Example 66, 5-[4-(Butylamino)-3-(trifluoromethyl)phenyl]-3,6-dihydro-2H-1,3,4-oxadiazin-2-one]	95	65	3	2
CCNc1ccc(C2=NNC(=O)OC2)cc1C(F)(F)F [Example 67, 5-[4-(Ethylamino)-3-(trifluoromethyl)phenyl]-3,6-dihydro-2H-1,3,4-oxadiazin-2-one]	63	47	5	3
Cn1cc(-c2ccc(C3=NNC(=O)OC3)cc2OC(F)(F)F)cn1 [Example 68, 5-[4-(1-Methyl-1H-pyrazol-4-yl)-3-(trifluoromethoxy)phenyl]-3,6-dihydro-2H-1,3,4-oxadiazin-2-one]	152	81	6	4
CCCNc1ccc(C2=NNC(=O)OC2)cc1C(F)(F)F [Example 69, 5-[4-(Propylamino)-3-(trifluoromethyl)phenyl]-3,6-dihydro-2H-1,3,4-oxadiazin-2-one]	47	31	1	1
Cc1ccc(-c2ccc(C3=NNC(=O)OC3)cc2OC(F)(F)F)cn1 [Example 70, 5-[4-(6-Methylpyridin-3-yl)-3-(trifluoromethoxy)phenyl]-3,6-dihydro-2H-1,3,4-oxadiazin-2-one]	170	75	29	15
O=C1NN=C(c2ccc(N3CCC3)c(C(F)(F)F)c2)CO1 [Example 72, 5-[4-(Azetidin-1-yl)-3-(trifluoromethyl)phenyl]-3,6-dihydro-2H-1,3,4-oxadiazin-2-one]	180	74	5	2
Cn1cnc2ccc(-c3ccc(C4=NNC(=O)OC4)cc3C(F)(F)F)cc21 [Example 73, 5-[4-(1-Methyl-1H-benzimidazol-6-yl)-3-(trifluoromethyl)phenyl]-3,6-dihydro-2H-1,3,4-oxadiazin-2-one]	41	18	46	25
CCCCCNc1ccc(C2=NNC(=O)OC2)cc1C(F)(F)F [Example 74, 5-[4-(Pentylamino)-3-(trifluoromethyl)phenyl]-3,6-dihydro-2H-1,3,4-oxadiazin-2-one]	100	42	23	11
Cn1ncc2ccc(-c3ccc(C4=NNC(=O)OC4)cc3C(F)(F)F)cc21 [Example 75, 5-[4-(1-Methyl-1H-indazol-6-yl)-3-(trifluoromethyl)phenyl]-3,6-dihydro-2H-1,3,4-oxadiazin-2-one]	78	31	44	22
O=C1NN=C(c2ccc(-c3ccc(F)nc3)c(F)c2)CO1 [Example 77, 5-[3-Fluoro-4-(6-fluoropyridin-3-yl)phenyl]-3,6-dihydro-2H-1,3,4-oxadiazin-2-one]	83	33	16	8
Cc1cnccc1-c1ccc(C2=NNC(=O)OC2)cc1F [Example 78, 5-[3-Fluoro-4-(3-methylpyridin-4-yl)phenyl]-3,6-dihydro-2H-1,3,4-oxadiazin-2-one]	48	29	21	10
Cc1cc(-c2ccc(C3=NNC(=O)OC3)cc2F)ccn1 [Example 79, 5-[3-Fluoro-4-(2-methylpyridin-4-yl)phenyl]-3,6-dihydro-2H-1,3,4-oxadiazin-2-one]	71	29	25	12
Nc1ccc(-c2ccc(C3=NNC(=O)OC3)cc2F)cc1 [Example 80, 5-(4′-Amino-2-fluorobiphenyl-4-yl)-3,6-dihydro-2H-1,3,4-oxadiazin-2-one]	87	34	6	2
